Laboratory results reported in patent publication US4935418A, “Medical compositions of 1-aryloxy-2,3,4,5-tetrahydro-3-benzazepines and use thereof” (Hoechst-Roussel Pharmaceuticals Inc., priority 1988, dated 1990).
Counter-ions that a name gives are not always drawn.

Assays:
Type in all cases: in vivo
[1] = tested on: 2-phenyl-1,4-benzoquinone-induced writhing in mice; assay: 2-phenyl-1,4-benzoquinone-induced writhing test in mice; conditions: Mus musculus, sc
Source text: The compounds of the invention are also useful as analgesic agents due to their ability to alleviate pain in mammals. […] Exptl. Biol. Med., 95, 729 (1957)].

[2] = tested on: tetrabenazine induced ptosis in mice; assay: inhibition of tetrabenazine induced ptosis in mice; conditions: Mus musculus, oral, read-out: ED50 (50% inhibition of tetrabenazine-induced ptosis)
Source text: The antidepressant activities of some of the compounds of the invention expressed in terms of a 50% inhibition of ptosis of tetrabenazine-induced ptosis in mice is given in Table I.

[3] = tested on: 5-hydroxytryptophan induced seizures in rats; assay: potentiation of 5-hydroxytryptophan induced seizures in rats; conditions: Rattus norvegicus, ip, intraperitoneal, read-out: ED50 (potentiation of 5-hydroxytryptophan induced seizures in 50% of the animals)
Source text: The antidepressant activities of some of the compounds of the invention expressed in terms of a potentiation of 5-hydroxytryptophan induced seizures in 50% of the animals is given in Table II.

[4] = tested on: spontaneous hypertensive rat; assay: antihypertensive activity in the spontaneous hypertensive rat, indirect tail cuff method; conditions: 50 mg/kg of body weight, oral, three days, measured on third day
Description: In this procedure a group of five animals are treated orally for three days with the test compound in relation to the control group of the same number. The drop in blood pressure is measured on the third day following administration.

SMILES | ED50 [3] [mg/kg] | Decrease in Blood Pressure (mean arterial) [4] [mm HG] | also measured
Clc1cccc(OC2CN(CCc3ccccc3)CCc3ccccc32)c1 (centres unmarked) [1-(m-Chlorophenoxy)-3-(2-phenylethyl)-2,3,4,5-tetrahydro-3-benzazepine oxalate] |  |  | inhibition in vivo at 25 mg/kg ([1]; subcutaneous, mice): 42%
Clc1cccc(OC2CN(CC3CC3)CCc3ccccc32)c1 (centres unmarked) [1-(m-Chlorophenoxy)-3-cyclopropylmethyl-2,3,4,5-tetrahydro-3-benzazepine oxalate] |  |  | inhibition in vivo at 25 mg/kg ([1]; subcutaneous, mice): 66%
COc1cc2c(cc1OC)C(Oc1cccc(Cl)c1)CNCC2.O=C(O)C(=O)O (centres unmarked) [1-(m-Chlorophenoxy)-7,8-dimethoxy-2,3,4,5-tetrahydro-3-benzazepine oxalate] | 1.1 |  | ED50 [2]: 4.2 mg/kg
Br.COc1ccc(OC2CN(C)CCc3ccccc32)cc1 (centres unmarked) [1-(p-Methoxyphenoxy)-3-methyl-2,3,4,5-tetrhydro-3-benzazepine hydrobromide] |  | 48 | inhibition in vivo at 20 mg/kg ([1]; subcutaneous, mice): 46%
FC(F)(F)c1ccc(OC2CNCCc3ccccc32)cc1.O=C(O)C(=O)O (centres unmarked) [1-(p-Trifluoromethylphenoxy)-2,3,4,5-tetrahydro-3-benzazepine oxalate] | 2.9 |  | 
CC(CN)N1CCc2ccccc2C(Oc2ccc(C(F)(F)F)cc2)C1 (centres unmarked) [3-(2-Amino-1-methyl)ethyl-2,3,4,5-tetrahydro-1-(p-trifluoromethylphenoxy)-3-benzazepine dioxalate] |  | 51 | 
NCCN1CCc2ccccc2C(Oc2cccc(Cl)c2)C1.O=C(O)C(=O)O.O=C(O)C(=O)O (centres unmarked) [3-(2-Aminoethyl)-1-(m-chlorophenoxy)-2,3,4,5-tetrahydro-3-benzazepine dioxalate] |  |  | ED50 [2]: 7.5 mg/kg
NCCN1CCc2ccccc2C(Oc2ccc(C(F)(F)F)cc2)C1.O=C(O)C(=O)O.O=C(O)C(=O)O (centres unmarked) [3-(2-Aminoethyl)-2,3,4,5-tetrahydro-1-(p-trifluoromethylphenoxy)-3-benzazepine dioxalate] |  | 61 | 
CNCCN1CCc2ccccc2C(Oc2ccc(C(F)(F)F)cc2)C1.O=C(O)C(=O)O.O=C(O)C(=O)O (centres unmarked) [3-(2-Methylaminoethyl)-2,3,4,5-tetrahydro-1-(p-trifluoromethylphenoxy)-3-benzazepine dioxalate] |  | 33 | 
NCCCN1CCc2ccccc2C(Oc2ccc(C(F)(F)F)cc2)C1 (centres unmarked) [3-(3-Aminopropyl)-2,3,4,5-tetrahydro-1-(p-trifluoromethylphenoxy)-3-benzazepine dimaleate] |  |  | inhibition in vivo at 8.2 mg/kg ([1]; subcutaneous, 8.2 mg/kg, mice): 50%
Br.Cc1ccc(OC2CN(C)CCc3ccccc32)cc1 (centres unmarked) [3-Methyl-1-(p-methylphenoxy)-2,3,4,5-tetrahydro-3-benzazepine Hydrobromide] |  | 35 | 
COc1cc2c(cc1OC)C(Oc1ccc(F)cc1)CNCC2.O=C(O)/C=C\C(=O)O (centres unmarked) [7,8-Dimethoxy-1-(4-fluorophenoxy)-2,3,4,5-tetrahydro-3-benzazepine maleate] | 2.9 |  | 
COc1ccc(OC2CNCCc3cc(OC)c(OC)cc32)cc1.O=C(O)/C=C\C(=O)O (centres unmarked) [7,8-Dimethoxy-1-(4-methoxyphenoxy)-2,3,4,5-tetrahydro-3-benzazepine maleate] | 0.9 |  | 
COc1ccc(OC2CN(C)CCc3cc(OC)c(OC)cc32)cc1 (centres unmarked) [7,8-Dimethoxy-1-(4-methoxyphenoxy)-3-methyl-2,3,4,5-tetrahydro-3-benzazepine hydrochloride] |  |  | inhibition in vivo at 7.6 mg/kg ([1]; subcutaneous, 7.6 mg/kg, mice): 50%
COc1cc2c(cc1OC)C(Oc1ccccc1)CNCC2.O=C(O)C(=O)O (centres unmarked) [7,8-Dimethoxy-1-phenoxy-2,3,4,5-tetrahydro-3-benzazepine oxalate] | 0.85 |  | ED50 [2]: 3.7 mg/kg
CCCN1CCc2cc(OC)c(OC)cc2C(Oc2ccccc2)C1.O=C(O)C(=O)O (centres unmarked) [7,8-Dimethoxy-1-phenoxy-3-(n-propyl)-2,3,4,5-tetrahydro-3-benzazepine oxalate] | 0.7 |  | 
COc1cc2c(cc1OC)C(Oc1ccc(C(F)(F)F)cc1)CNCC2 (centres unmarked) [7,8-Dimethoxy-2,3,4,5-tetrahydro-1-(p-trifluoromethylphenoxy)-3-benzazepineoxalate] |  | 49 | 
COc1cc2c(cc1OC)C(Oc1ccc(C)cc1)CN(C)CC2 (centres unmarked) [7,8-Dimethoxy-3-methyl-1-(4-methylphenoxy)-2,3,4,5-tetrahydro-3-benzazepinemaleate] | 0.9 |  | 
COc1cc2c(cc1OC)C(Oc1ccccc1)CN(C)CC2.O=C(O)C(=O)O (centres unmarked) [7,8-Dimethoxy-3-methyl-1-phenoxy-2,3,4,5-tetrahydro-3-benzazepine oxalate] | 7.5 |  | ED50 [2]: 3.8 mg/kg; inhibition in vivo at 20 mg/kg ([1]; subcutaneous, mice): 58%
COc1cc2c(cc1OC)C(Oc1ccc(C(F)(F)F)cc1)CN(C)CC2.Cl (centres unmarked) [7,8-Dimethoxy-3-methyl-2,3,4,5-tetrahydro-1-(p-trifluoromethylphenoxy)-3-benzazepine hydrochloride] |  | 43 | inhibition in vivo at 5.7 mg/kg ([1]; subcutaneous, 5.7 mg/kg, mice): 50%
CNCCCN1c2ccccc2CCc2ccccc21 [desipramine, reference compound] |  |  | ED50 [2]: 2.3 mg/kg
N=C(N)NCCN1CCCCCCC1 [guanethidine, reference compound] |  | 20 | 
CCC(=O)O[C@](Cc1ccccc1)(c1ccccc1)[C@H](C)CN(C)C [propoxyphene, reference compound] |  |  | inhibition in vivo at 3.9 mg/kg ([1]; read-out: Inhibition of Writhing): 50%
